In PubChem BioAssay (NCI):
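The concentration for 50% growth inhibition is given as GI50. Definition used: TGI = concentration required for complete inhibition of growth.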

Key:
Test in all cases: NCI anticancer screen, dose series, 384-well format
K-562 leukemia = test system: K-562 leukemia
SK-MEL-28 melanoma = test system: SK-MEL-28 melanoma
HS 578T breast = test system: HS 578T breast
NCI-H322M lung = test system: NCI-H322M lung
EKVX NSCLC = test system: EKVX NSCLC
HT29 colon = test system: HT29 colon
MDA-MB-468 breast = test system: MDA-MB-468 breast
KM12 colon = test system: KM12 colon
NCI-H226 lung = test system: NCI-H226 lung
MOLT-4 leukemia = test system: MOLT-4 leukemia
NCI-H460 NSCLC = test system: NCI-H460 NSCLC
HOP-62 NSCLC = test system: HOP-62 NSCLC
IGROV1 ovarian = test system: IGROV1 ovarian
HL-60(TB) leukemia = test system: HL-60(TB) leukemia
OVCAR-8 ovarian = test system: OVCAR-8 ovarian
UO-31 renal = test system: UO-31 renal
M14 melanoma = test system: M14 melanoma
HCT-15 colon = test system: HCT-15 colon
OVCAR-3 ovarian = test system: OVCAR-3 ovarian
OVCAR-4 ovarian = test system: OVCAR-4 ovarian
SNB-75 CNS = test system: SNB-75 CNS
ACHN renal = test system: ACHN renal
MDA-MB-231 breast = test system: MDA-MB-231 breast
HCT-116 colon = test system: HCT-116 colon
UACC-62 melanoma = test system: UACC-62 melanoma
OVCAR-5 ovarian = test system: OVCAR-5 ovarian
U251 glioblastoma = test system: U251 glioblastoma
NCI-H23 lung = test system: NCI-H23 lung
TK-10 renal = test system: TK-10 renal
RXF 393 renal = test system: RXF 393 renal
MDA-MB-435 melanoma = test system: MDA-MB-435 melanoma
UACC-257 melanoma = test system: UACC-257 melanoma
SF-295 CNS = test system: SF-295 CNS
MCF7 breast = test system: MCF7 breast
SF-539 CNS = test system: SF-539 CNS
SK-MEL-5 melanoma = test system: SK-MEL-5 melanoma
T-47D breast = test system: T-47D breast
SW-620 colon = test system: SW-620 colon
NCI-H522 lung = test system: NCI-H522 lung
SNB-19 CNS = test system: SNB-19 CNS
SN12C renal = test system: SN12C renal
SR leukemia = test system: SR leukemia
DU-145 prostate = test system: DU-145 prostate
SK-MEL-2 melanoma = test system: SK-MEL-2 melanoma
COLO 205 colon = test system: COLO 205 colon
CAKI-1 renal = test system: CAKI-1 renal
PC-3 prostate = test system: PC-3 prostate
A498 renal = test system: A498 renal
786-0 renal = test system: 786-0 renal
SF-268 CNS = test system: SF-268 CNS
HOP-92 NSCLC = test system: HOP-92 NSCLC
BT-549 breast = test system: BT-549 breast
A549 NSCLC = test system: A549 NSCLC
MALME-3M melanoma = test system: MALME-3M melanoma
SK-OV-3 ovarian = test system: SK-OV-3 ovarian

**Q.** With `COc1cc(Nc2ncc(F)c(Nc3ccc4c(n3)N(COP(=O)(O)O)C(=O)C(C)(C)O4)n2)cc(OC)c1OC` as the compound, how does the GI50 (K-562 leukemia) read?
**A.** 2630 nM

**Q.** What about the TGI (K-562 leukemia) of the same compound?
**A.** 10800 nM

**Q.** What about the GI50 (SK-MEL-28 melanoma) of the same compound?
**A.** 2340 nM

**Q.** And the TGI (SK-MEL-28 melanoma)?
**A.** > 100000 nM

**Q.** And the GI50 (HS 578T breast)?
**A.** 1260 nM

**Q.** What about the TGI (HS 578T breast) of the same compound?
**A.** 2550 nM

**Q.** What about the GI50 (NCI-H322M lung) of the same compound?
**A.** 1750 nM

**Q.** And the TGI (NCI-H322M lung)?
**A.** 4850 nM

**Q.** What about the GI50 (EKVX NSCLC) of the same compound?
**A.** 1090 nM

**Q.** And the TGI (EKVX NSCLC)?
**A.** 2630 nM

**Q.** What about the GI50 (HT29 colon) of the same compound?
**A.** 1410 nM

**Q.** And the TGI (HT29 colon)?
**A.** 4490 nM

**Q.** What about the GI50 (MDA-MB-468 breast) of the same compound?
**A.** 1700 nM

**Q.** What about the TGI (MDA-MB-468 breast) of the same compound?
**A.** 3340 nM

**Q.** What about the GI50 (KM12 colon) of the same compound?
**A.** 2900 nM

**Q.** And the TGI (KM12 colon)?
**A.** 10900 nM

**Q.** What about the GI50 (NCI-H226 lung) of the same compound?
**A.** 640 nM

**Q.** And the TGI (NCI-H226 lung)?
**A.** 2490 nM

**Q.** And the GI50 (MOLT-4 leukemia)?
**A.** 1380 nM

**Q.** What about the TGI (MOLT-4 leukemia) of the same compound?
**A.** 3030 nM

**Q.** And the GI50 (NCI-H460 NSCLC)?
**A.** 534 nM

**Q.** What about the TGI (NCI-H460 NSCLC) of the same compound?
**A.** 11300 nM

**Q.** And the GI50 (HOP-62 NSCLC)?
**A.** 1450 nM

**Q.** What about the TGI (HOP-62 NSCLC) of the same compound?
**A.** 3710 nM

**Q.** What about the GI50 (IGROV1 ovarian) of the same compound?
**A.** 427 nM

**Q.** What about the TGI (IGROV1 ovarian) of the same compound?
**A.** 1600 nM

**Q.** And the GI50 (HL-60(TB) leukemia)?
**A.** 1570 nM

**Q.** What about the TGI (HL-60(TB) leukemia) of the same compound?
**A.** 3030 nM

**Q.** What about the GI50 (OVCAR-8 ovarian) of the same compound?
**A.** 1610 nM

**Q.** And the TGI (OVCAR-8 ovarian)?
**A.** 3010 nM

**Q.** What about the GI50 (UO-31 renal) of the same compound?
**A.** 654 nM

**Q.** And the TGI (UO-31 renal)?
**A.** 2830 nM

**Q.** What about the GI50 (M14 melanoma) of the same compound?
**A.** 2410 nM

**Q.** What about the TGI (M14 melanoma) of the same compound?
**A.** 38800 nM

**Q.** And the GI50 (HCT-15 colon)?
**A.** 3060 nM

**Q.** What about the TGI (HCT-15 colon) of the same compound?
**A.** > 100000 nM

**Q.** What about the GI50 (OVCAR-3 ovarian) of the same compound?
**A.** 1970 nM

**Q.** And the TGI (OVCAR-3 ovarian)?
**A.** 11100 nM

**Q.** What about the GI50 (OVCAR-4 ovarian) of the same compound?
**A.** 1450 nM

**Q.** And the TGI (OVCAR-4 ovarian)?
**A.** 4120 nM

**Q.** And the GI50 (SNB-75 CNS)?
**A.** 505 nM

**Q.** And the TGI (SNB-75 CNS)?
**A.** 1680 nM

**Q.** What about the GI50 (ACHN renal) of the same compound?
**A.** 1250 nM

**Q.** What about the TGI (ACHN renal) of the same compound?
**A.** 5820 nM

**Q.** And the GI50 (MDA-MB-231 breast)?
**A.** 1980 nM

**Q.** And the TGI (MDA-MB-231 breast)?
**A.** 5780 nM

**Q.** And the GI50 (HCT-116 colon)?
**A.** 1930 nM

**Q.** What about the TGI (HCT-116 colon) of the same compound?
**A.** 6520 nM

**Q.** What about the GI50 (UACC-62 melanoma) of the same compound?
**A.** 1220 nM

**Q.** What about the TGI (UACC-62 melanoma) of the same compound?
**A.** 3450 nM

**Q.** And the GI50 (OVCAR-5 ovarian)?
**A.** 1940 nM

**Q.** And the TGI (OVCAR-5 ovarian)?
**A.** 42800 nM

**Q.** And the GI50 (U251 glioblastoma)?
**A.** 1700 nM

**Q.** And the TGI (U251 glioblastoma)?
**A.** 6870 nM

**Q.** What about the GI50 (NCI-H23 lung) of the same compound?
**A.** 1380 nM

**Q.** What about the TGI (NCI-H23 lung) of the same compound?
**A.** 4400 nM

**Q.** What about the GI50 (TK-10 renal) of the same compound?
**A.** 1380 nM

**Q.** And the TGI (TK-10 renal)?
**A.** 3130 nM

**Q.** What about the GI50 (RXF 393 renal) of the same compound?
**A.** 241 nM

**Q.** And the TGI (RXF 393 renal)?
**A.** 887 nM

**Q.** And the GI50 (MDA-MB-435 melanoma)?
**A.** 2350 nM

**Q.** And the TGI (MDA-MB-435 melanoma)?
**A.** 25400 nM

**Q.** What about the GI50 (UACC-257 melanoma) of the same compound?
**A.** 4060 nM

**Q.** What about the TGI (UACC-257 melanoma) of the same compound?
**A.** > 100000 nM

**Q.** What about the GI50 (SF-295 CNS) of the same compound?
**A.** 2500 nM

**Q.** And the TGI (SF-295 CNS)?
**A.** 88300 nM

**Q.** And the GI50 (MCF7 breast)?
**A.** 1910 nM

**Q.** What about the TGI (MCF7 breast) of the same compound?
**A.** > 100000 nM

**Q.** What about the GI50 (SF-539 CNS) of the same compound?
**A.** 618 nM

**Q.** What about the TGI (SF-539 CNS) of the same compound?
**A.** 1870 nM

**Q.** What about the GI50 (SK-MEL-5 melanoma) of the same compound?
**A.** 2510 nM

**Q.** And the TGI (SK-MEL-5 melanoma)?
**A.** 6660 nM

**Q.** What about the GI50 (T-47D breast) of the same compound?
**A.** 2370 nM

**Q.** What about the TGI (T-47D breast) of the same compound?
**A.** 9310 nM

**Q.** And the GI50 (SW-620 colon)?
**A.** 1880 nM

**Q.** And the TGI (SW-620 colon)?
**A.** 6610 nM

**Q.** And the GI50 (NCI-H522 lung)?
**A.** 679 nM

**Q.** What about the TGI (NCI-H522 lung) of the same compound?
**A.** 2200 nM

**Q.** What about the GI50 (SNB-19 CNS) of the same compound?
**A.** 1920 nM

**Q.** And the TGI (SNB-19 CNS)?
**A.** 4970 nM

**Q.** And the GI50 (SN12C renal)?
**A.** 724 nM

**Q.** And the TGI (SN12C renal)?
**A.** 7140 nM

**Q.** What about the GI50 (SR leukemia) of the same compound?
**A.** 1510 nM

**Q.** What about the TGI (SR leukemia) of the same compound?
**A.** 2950 nM

**Q.** And the GI50 (DU-145 prostate)?
**A.** 1890 nM

**Q.** What about the TGI (DU-145 prostate) of the same compound?
**A.** 7540 nM

**Q.** And the GI50 (SK-MEL-2 melanoma)?
**A.** 2930 nM

**Q.** And the TGI (SK-MEL-2 melanoma)?
**A.** 16500 nM

**Q.** And the GI50 (COLO 205 colon)?
**A.** 1640 nM

**Q.** And the TGI (COLO 205 colon)?
**A.** 3670 nM

**Q.** And the GI50 (CAKI-1 renal)?
**A.** 974 nM

**Q.** And the TGI (CAKI-1 renal)?
**A.** 2160 nM

**Q.** And the GI50 (PC-3 prostate)?
**A.** 2730 nM

**Q.** What about the TGI (PC-3 prostate) of the same compound?
**A.** 12300 nM

**Q.** And the GI50 (A498 renal)?
**A.** 1740 nM

**Q.** And the TGI (A498 renal)?
**A.** 3350 nM

**Q.** And the GI50 ([…]-0 renal)?
**A.** 1320 nM

**Q.** What about the TGI (786-0 renal) of the same compound?
**A.** 2990 nM

**Q.** What about the GI50 (SF-268 CNS) of the same compound?
**A.** 1450 nM

**Q.** What about the TGI (SF-268 CNS) of the same compound?
**A.** 2810 nM

**Q.** What about the GI50 (HOP-92 NSCLC) of the same compound?
**A.** 1260 nM

**Q.** And the TGI (HOP-92 NSCLC)?
**A.** 2600 nM

**Q.** What about the GI50 (BT-549 breast) of the same compound?
**A.** 1300 nM

**Q.** And the TGI (BT-549 breast)?
**A.** 2740 nM

**Q.** What about the GI50 (A549 NSCLC) of the same compound?
**A.** 1520 nM

**Q.** What about the TGI (A549 NSCLC) of the same compound?
**A.** 3120 nM

**Q.** What about the GI50 (MALME-3M melanoma) of the same compound?
**A.** 2300 nM

**Q.** And the TGI (MALME-3M melanoma)?
**A.** > 100000 nM

**Q.** And the GI50 (SK-OV-3 ovarian)?
**A.** 871 nM

**Q.** What about the TGI (SK-OV-3 ovarian) of the same compound?
**A.** 2230 nM
